Measurements as given in paper PMC12801355, “Peptide Amphiphiles Hitchhike on Endogenous Biomolecules for Enhanced Cancer Imaging and Therapy” (Advanced Materials (Deerfield Beach, Fla.), 2025).
Where a SMILES comes first, the peptide text is derived from it. The star is where a group is joined. Palmitoyl = CCCCCCCCCCCCCCCC(=O)*

What was measured:
[1] = tested on: HeLa human cervical cancer cells; assay: Uptake of SA‐E by wild type or LDL‐R knockout cells; assay type: cell-based; conditions: Cy5 SA‐E 20 µM, 10% FBS DMEM
Description: For LDL‐R studies, 2 × 10^5 wild type or LDL‐R‐/‐ HeLa human cervical cancer cells were grown to near confluency in 96 well plates with black walls and flat glass bottom. Cy5 conjugated SA‐E (20 µM) was preincubated in DMEM containing 10% FBS for 30 min at 37 °C. Wells were aspirated, and 100 µL of the SA‐E containing DMEM was added. The plate was incubated for 30 min, as above. The wells were washed with sterile PBS, as above, media was added, and the plate was returned to the incubator for 1 h. Wells were aspirated, and nuclei were stained with Hoechst as above. Wells were aspirated, and 100 µL of phenol red free DMEM with 10% FBS was added to each well. Cells were then imaged for Cy5 conjugated SA‐E with a Zeiss Apotome 3 microscope at 20x and 63x objectives using Zen software.

RG2 xenografts = assay: Flow cytometry of mCherry expressing RG2 xenografts; assay type: in vivo, mouse; conditions: Cy5 SA‐E 50 nmol IV
Description: RG2‐mCherry cells (100 µL sterile DMEM, 0.5 × 10^7 cells mL^−1) were implanted subcutaneously in nude mice and allowed to grow to 0.5–1 cm. Mice were then injected intravenously with the Cy5 labeled SA‐E (100 µL, 0.5 mM). 2 days later, tumors were extracted, minced, and dissociated using 1 mg mL^−1 solution collagenase/dispase (Roche, 10269638001 and 11097113001) for 45 min at 37 °C. The solution was broken down with pipetting and filtered through a 70 µm filter. The single‐cell solution was suspended in sterile PBS (10 mM, pH 7.4) and then incubated with 1:50 dilution of AlexaFluor 488 Rat Anti‐Mouse CD45 antibody (BD Pharminogen, 567377) for 45 min at room temperature. Finally, the cells were pelleted and, washed and incubated with 5 µM Calcein Blue, AM (Invitrogen, C1429) for 20 min. The cells were then analyzed in BD FACSymphony in the DAPI channel (355 nm laser, 450/50 filter), FITC channel (488 nm laser, 515/30 filter), Cy3 channel (561 nm laser, 586/15 filter), and Cy5 channel (628 nm laser, 670/30 filter). Cells in culture were used to establish size and mCherry intensity. […] Finally, three experimental mice were analyzed in all channels using the gating established from the controls. Gating was performed in FlowJo software.

4T1 tumor = assay: Biodistribution in tumor‐bearing mice; assay type: in vivo, mouse; conditions: 4T1, 2 days after 50 nmol IV, tissue homogenates, plate reader, mean ± SEM
Description: For biodistribution studies in 4T1 and MC38 tumor models in wild type, ApoA1 ‐/‐, or LDL‐R ‐/‐ mice, 100 µL of ICG conjugated PAs or free ICG (0.5 mM) were intravenously injected. 2 days after injection, the mice were euthanized, and tumors and organs were excised and analyzed in the IVIS (PerkinElmer) for ICG.
To determine the percentage of the injected dose of SA‐E in tissues, 4T1 tumor, spleen, kidney, lung, and colon tissues were harvested from 5 mice 2 days after ICG conjugated SA‐E (IV, 100 µL, 0.5 mM). Organ weights were measured for normalization. Tissues were homogenized in gentleMACS M Tube containing 1 mL of PBS and equipped with a 600 µm mesh strainer using a gentleMACS dissociator as described above. The resulting tissue homogenates were transferred into a 96‐well plate for fluorescence measurement using a microplate reader (TECAN Spark 20 M). Additionally, organ tissues from healthy mice without probe injection were harvested and homogenized to prepare calibration curves. ICG conjugated SA‐E was spiked into tissue samples at different concentrations, and fluorescence intensities were measured using a microplate reader (TECAN Spark 20 M). For biodistribution studies with 10 mol% ICG containing micelles, ICG conjugated PAs were mixed with maleimide blocked PAs to achieve a final concentration of 0.25 mM ICG conjugated PAs and 2.5 mM total peptides. […]

Toxicity in mice = assay type: in vivo, mouse; conditions: wild type mice, 200 nmol IV, 5 mice
Description: Wild type mice were injected intravenously with ICG conjugated SA‐E at 4 times the dose used previously for imaging (100 µL, 2 mM). 1 day later, blood was removed via cardiac puncture, placed into an EDTA tube, and then centrifuged at 1500 g for 10 min, then 2500 g for 10 min to obtain plasma. The plasma was analyzed for Aspartate Aminotransferase activity (AST) (Abcam, AB105135) and creatinine (Crystal Chem, 80350) following the manufacturer's protocol. For complete blood counts, whole blood (10 µL) was mixed with 2 mM EDTA (10 µL) and analyzed using the HemaVet 950S (Drew Scientific).

CCCCCCCCCCCCCCCC(=O)NCC(=O)NCC(=O)NCC(=O)N[C@@H](Cc1c[nH]cn1)C(=O)N[C@@H](C)C(=O)N[C@@H](C)C(=O)N[C@@H](CC(N)=O)C(=O)NCC(=O)N[C@@H](CCC(=O)O)C(=O)N[C@@H](CCC(=O)O)C(=O)N[C@@H](CS)C(=O)N[C@@H](CCC(=O)O)C(=O)O [SA‐E] (Palmitoyl-GGGHAANGEECE-OH)
uptake in LDL‐R‐/‐ cells compared to wild type [1]: did not observe any significant change | CD45 and mCherry negative cells (tumor stroma) containing Cy5 (RG2 xenografts; 2 days): 35%–40 | CD45 positive only (white blood cells) containing Cy5 (RG2 xenografts; 2 days): 35%–40 | enrichment in cancer cells compared to other cells in the tumor (RG2 xenografts; 2 days): approximately two‐fold | mCherry expressing cancer cells containing Cy5 (RG2 xenografts; tumors harvested 2 days later, three mice): ≈ 70% | concentration in the tumor (4T1 tumor; 5 mice): 1.9% ± 0.4 %ID / g tissue | concentration in liver (4T1 tumor): 0.8% ± 0.1 %ID / g tissue | Aspartate transferase (AST) versus control (Toxicity in mice; 1 day): no difference | Creatinine versus control (Toxicity in mice; 1 day): no difference | complete blood counts (CBC) versus control (Toxicity in mice; blood 1 day after injection): no difference
